Assays:
[1] = Brain-blood plasma distribution in vivo; parameters: species or system Sprague-Dawley rats; conditions: rat, 10 mg/kg intravenously, 2 hr post-dose
Protocol: Compound CC was administered intravenously (10 mg/kg) into the veins of Sprague-Dawley rats. After 2 hr, blood samples were obtained from the animals and their vascular systems were perfused with approximately 100 mL of saline to rid their brains of blood. The brains were removed from the animals, weighed, and homogenized in a 50 mL conical tube containing 10 equivalents (w/v) of methanol/saline (1:1) using a Tissue Tearer (Fischer Scientific). The homogenized material was extracted by adding 600 μL of cold methanol to 250 μL of brain homogenate vortexed for 30 sec and subjected to centrifugation for 5 min. After centrifugation, 600 μL of the resulting supernatant was transferred to a clean tube and evaporated at room temperature under reduced pressure to provide a pellet. […] The brain homogenate analysis samples, plasma analysis samples, and standard analysis samples were analyzed and compared using HPLC by injecting 100 μL of a sample onto a 5 μm C-18 Luna column (4.6 mm×150 mm, commercially available from Phenomenex of Torrance, Calif.) and eluting at 1 mL/min with a linear gradient of 30% aqueous acetonitrile containing 0.1% trifluoroacetic acid to 90% aqueous acetonitrile containing 0.1% trifluoroacetic acid over 8 minutes and holding at 90% aqueous acetonitrile containing 0.1% trifluoroacetic acid for 3 min. with absorbance detection at 450 nm. […]

[2] = Solubility in aqueous media; type: physicochemical
[3] = tested on: rat ventral mesencephalan neurons; experiment: [3H]Dopamine cell culture assay (6-OHDA neurotoxicity); type: cell-based; conditions: approximately 3×10^−6 M compound; 6-OHDA 30 μM; uptake 22 hrs after exposure; FIG. 1
Protocol: Cultures of dopaminergic neurons were prepared according to a modification of the procedure described by Raymon and Leslie (J. Neurochem. 62, 1015-1024, 1994). Time-mated pregnant rats were sacrificed on embyronic day 14-15 (crown rump length 11-12 mm) and the embryos removed by cesarean section. The ventral mesencephalon, containing the dopaminergic neurons, was dissected from each embryo. Tissue pieces from approximately 48 embryos were pooled and dissociated both enzymatically and mechanically. An aliquot from the resulting cell suspension was counted and the cells were plated in high glucose DMEM/F12 culture medium with 10% fetal bovine serum at a density of 1×10^5 cells/well of a Biocoat poly-D-lysine-coated 96-well plate. The day following plating was considered 1 day in vitro (DIV). Cells were maintained in a stable environment at 37° C., 95% humidity, and 5% CO2. A partial medium change was performed at 3 DIV. […]
[^3H]Dopamine uptake is used as a measure of the health and integrity of dopaminergic neurons in culture (Prochiantz et al., PNAS 76: 5387-5391, 1979). […] Briefly, cells treated with 6-OHDA in the presence and absence of Compound CC were assessed in the uptake assay 22 hrs after exposure to 6-OHDA. […] Radioactivity was removed and the cultures were washed 3× with ice cold PBS. […]

- brain-drug concentration [1]: approximately 65 nmole/g
- solubility in aqueous media [2]: limited solubility
Structure (SMILES): Nc1ccc2snc3c2c1C(=O)c1ccccc1-3 [Compound CC]
- protection of neurons from 6-OHDA, by [3H]dopamine uptake [3]: protects rat ventral mesencephalan neurons from the toxic effects of 6-OHDA

— patent US6987184B2, “Isothiazoloanthrones, isoxazoloanthrones, isoindolanthrones and derivatives thereof as JNK inhibitors and compositions and methods related” (Signal Pharmaceuticals, LLC, priority 2001, dated 2006)
